Test results published in patent US20080039531A1, “Compositions, and kits comprising targeted aldehyde or acetal protease inhibitor compounds for treating muscle disorders” (priority 2005, published 2008).
Values joined by “and” are separate entries in the source; they are usually repeats but may differ in a detail not shown here. Identical values can stand only once. Like-named read-outs stand apart in the source and are kept apart here.

Tests used:
[1] = test system: Calpain; assay: Monkey study, oral leupeptin: muscle calpain activities; format: in vivo, monkeys
Source text: However, the trend in activities, as was expected, when comparing control, left muscle to right, denervated, leupeptin-treated muscle, was an overall decrease in calpain activity after leupeptin treatment. The mean decrease in calpain activity in the right opponens pollicis muscles of leupeptin treated animals was 30%. The mean decrease in calpain activity in the right abductor pollicis muscles of leupeptin-treated animals was 24%.

[2] = Absorption of leupeptin into plasma after intramuscular injection (FIG. 2); format: in vivo, rats; conditions: leupeptin 18 mg/kg intramuscular injection in hind-limbs
Procedure: To determine that leupeptin was effectively being absorbed into plasma following intramuscular (“IM”) administration in hind-limbs of 18 mg/kg, blood was withdrawn at 60, 75, 90, 120, 180 minutes and 24 hours after the IM injection (FIG. 2).

[3] = test system: MDX mice; assay: MDX mouse study: myofiber diameter after intramuscular leupeptin; format: in vivo; conditions: for Myofiber diameter, Anterior tibialis / Myofiber diameter, Diaphragm / Myofiber diameter, Gastrocnemius / Myofiber diameter, Soleus: mdx mice, ± SD
Procedure: (§1) It is well documented that as, observed in DMD and BMD, dystrophin is dysfunctional/absent in the murine MDX model of muscular dystrophy. […] A series of studies to test the ability of the calpain inhibitor, leupeptin, to delay and/or prevent features of calcium-induced damage to dystrophic myofibers was initiated. Control C57BL/10SNJ mice were treated with intramuscular injections of normal saline. The MDX mice were treated intramuscularly with either normal saline or 12 mg/kg leupeptin or 18 mg/kg leupeptin twice daily. All injections were delivered in the hind-limbs in various locations to avoid muscle damage due to repeated injections at the same location. The gastrocnemius, soleus, anterior tibialis, and diaphragm muscles were examined in all animals.

[4] = test system: opponens and abductor myofibers; assay: Monkey study, intramuscular leupeptin: muscle morphology after delayed median nerve repair; format: in vivo, Cebus apella
Source text: In order to test the hypothesis that in vivo inhibition of calpains by leupeptin can facilitate neuromuscular recovery by inhibiting denervation atrophy of the skeletal-muscle target after complete peripheral nerve transection and delayed nerve repair (7), a monkey study (Cebus apella) was undertaken. This median-nerve model was chosen to approximate human anatomic and regenerative aspects.

[5] = test system: rat hind limb muscle (sciatic nerve denervation); conditions: for % loss (muscle atrophy due to denervation): rat
Procedure: Denervation was carried out on one of the hind limb sciatic nerves of the rat. Denervation was allowed to proceed for 7 days. Either leupeptin or CLA was injected 2×/day in forelimb muscle for seven days. The non-denervated hind limb was used as the control. Leupeptin and/or CLA were injected into alternating forelimb muscles for a period of seven days after which, animals were sacrificed, muscles excised and weighed.

[6] = test system: calpain; conditions: rats, IP, muscle isolated after 2 hours
Procedure: An initial series of toxicology experiments was performed in rats to assess the effect of CLA at various doses, on animal viability. […] A series of experiments to examine the ability of CLA vs. leupeptin to decrease activated calpain levels and inhibit muscle wasting was conducted. In the experiment shown in Table 4, rats were utilized to assess the effect of IP injection of either leupeptin or CLA into the hind limb muscle on their ability to inhibit calpain activity. To this end, four rats were injected IP with either leupeptin or CLA. After 2 hours, the muscle was isolated, homogenized, and assayed for remaining calpain activity by the standard assay.

[7] = test system: Duchenne patients; assay: Preliminary safety trial of oral leupeptin in DMD children; format: in vivo
Procedure: Leupeptin's low toxicity, non-immunogenicity and stability profile have made it a potential drug for eventual human use. In this regard, a preliminary safety trial of leupeptin in seven Italian DMD children with ages varying from 7-10 was performed. The trial was approved by the Italian Ministry of Health and the leupeptin supplied by the Nippon Kayaku Co., Japan. […] During the process of muscle degeneration, muscle cells break open and their contents find their way into the bloodstream. […] CK levels can be slightly elevated (500 U/L) in some nerve disorders, or grossly elevated (5,000 to 15,000 U/L) in DMD or inflammatory myopathies. Importantly the significant decline in CK levels after treatment with leupeptin indicates a significant improvement (lessening of muscle breakdown) in these individuals, especially in the child given 100 mg twice daily.

[8] = test system: calpain; assay: Calpain activities of muscle samples from leupeptin-treated MDX mice; format: in vivo, mouse; conditions: for Calpain activities of muscle samples, Anterior tibialis / Calpain activities of muscle samples, Diaphragm / Calpain activities of muscle samples, Gastrocnemius / Calpain activities of muscle samples, Soleus: mdx mice, average of 3 determinations
Procedure: as §1
To further examine whether the beneficial/protective action of leupeptin was associated with a change in calpain activity, the activity of the enzyme was assessed in the muscle various muscles taken from the control, and MDX […]±treatment with leupeptin.

[9] = 12 mg/kg leupeptin intramuscularly twice daily
[10] = 18 mg/kg leupeptin intramuscularly twice daily
[11] = left, unoperated hand of leupeptin treated monkeys, 24 weeks

Structure (SMILES): CC(=O)N[C@@H](CC(C)C)C(=O)N[C@@H](CC(C)C)C(=O)N[C@H](C=O)CCCNC(=N)N [Leupeptin]
- mean decrease in calpain activity ([1]; right abductor pollicis muscles of oral leupeptin-treated monkeys): 24%
- mean decrease in calpain activity ([1]; right opponens pollicis muscles of oral leupeptin treated monkeys): 30%
- peak plasma level [2]: 4.5 µg/mL
- time of plasma peak [2]: 1 h
- concentration at 24 h ([2]; rat, plasma, 24 hr, read-out: plasma level by 24 hr): 0 ng/mL
- increase in myofiber diameter vs untreated MDX muscle ([3]; anterior tibialis, 12 mg/kg): 35%
- increase in myofiber diameter vs untreated MDX muscle ([3]; anterior tibialis, 18 mg/kg): 36%
- increase in myofiber diameter vs untreated MDX muscle ([3]; diaphragm, 12 mg/kg): 25%
- increase in myofiber diameter vs untreated MDX muscle ([3]; diaphragm, 18 mg/kg): 25%
- increase in myofiber diameter vs untreated MDX muscle ([3]; gastrocnemius, 12 mg/kg): 37%
- increase in myofiber diameter vs untreated MDX muscle ([3]; gastrocnemius, 18 mg/kg): 39%
- Myofiber diameter, Anterior tibialis [3, 9]: 37.5 ± 2.8 µm
- Myofiber diameter, Diaphragm [3, 9]: 21.8 ± 0.9 µm
- Myofiber diameter, Gastrocnemius [3, 9]: 32.9 ± 2.6 µm
- Myofiber diameter, Soleus [3, 9]: 24.7 ± 1.8 µm
- Myofiber diameter, Anterior tibialis [3, 10]: 38.3 ± 1.3 µm
- Myofiber diameter, Diaphragm [3, 10]: 21.7 ± 1.8 µm
- Myofiber diameter, Gastrocnemius [3, 10]: 34 ± 2.7 µm
- Myofiber diameter, Soleus [3, 10]: 25.5 ± 2.3 µm
- increase in myofiber diameter vs untreated MDX muscle ([3]; soleus, 12 mg/kg): 22%
- increase in myofiber diameter vs untreated MDX muscle ([3]; soleus, 18 mg/kg): 25%
- mean myofiber diameter, abductor [4, 11]: 40.43±2.23 μm
- mean myofiber diameter, opponens [4, 11]: 43.25±4.26 μm
- myofiber diameter vs control animals ([4]; right, nerve-repaired hand, opponens and abductor, 12 and 24 weeks (FIG. 3)): statistically significant increase
- % loss (muscle atrophy due to denervation) ([5]; 1.5 mg/kg injected 2x/day for seven days): 30.9 ± 4%
- % loss (muscle atrophy due to denervation) ([5]; 15.0 mg/kg injected 2x/day for seven days): 2.6 ± 0.3%
- health / toxic effect in denervation study ([5]; rats, seven days of injections): remained healthy without any apparent negative toxic effect
- % inhibition of muscle calpain activity ([6]; 75 μmoles): 20%
- % inhibition/μmole [6]: 0.26%
- Fold (effectiveness per μmole relative to leupeptin) [6]: 1
- muscle function tests vs start of trial ([7]; DMD children, at 6 months and one year): little decline in muscle strength
- blood chemistries over the year ([7]; DMD children, oral leupeptin for one year): no abnormalities
- CREATINE KINASE After 1 yr. ([7]; Duchenne patient, oral leupeptin 100 mg twice daily): 375 Units/100 ml
- CREATINE KINASE After 1 yr. ([7]; Duchenne patients (one line per patient), oral leupeptin 50 mg twice daily): 2,500 Units/100 ml (2×) and 4,100 Units/100 ml and 2,700 Units/100 ml and 3,300 Units/100 ml and 3,500 Units/100 ml
- tolerability / adverse effects ([7]; in vivo, po): well tolerated
- decrease in calpain activity vs untreated MDX muscles ([8]; anterior tibialis, 12 mg/kg): 50%
- decrease in calpain activity vs untreated MDX muscles ([8]; anterior tibialis, 18 mg/kg): 77%
- decrease in calpain activity vs untreated MDX muscles ([8]; diaphragm, 12 mg/kg): 51%
- decrease in calpain activity vs untreated MDX muscles ([8]; diaphragm, 18 mg/kg): 71%
- decrease in calpain activity vs untreated MDX muscles ([8]; gastrocnemius, 12 mg/kg): 84%
- decrease in calpain activity vs untreated MDX muscles ([8]; gastrocnemius, 18 mg/kg): 60%
- Calpain activities of muscle samples, Anterior tibialis ([8]; 12 mg/kg leupeptin): 155 ± 16 cpm/200-μg protein
- Calpain activities of muscle samples, Diaphragm ([8]; 12 mg/kg leupeptin): 26 ± 4 cpm/200-μg protein
- Calpain activities of muscle samples, Gastrocnemius ([8]; 12 mg/kg leupeptin): 27 ± 7 cpm/200-μg protein
- Calpain activities of muscle samples, Soleus ([8]; 12 mg/kg leupeptin): 187 ± 16 cpm/200-μg protein
- Calpain activities of muscle samples, Anterior tibialis ([8]; 18 mg/kg leupeptin): 71 ± 11 cpm/200-μg protein
- Calpain activities of muscle samples, Diaphragm ([8]; 18 mg/kg leupeptin): 17 ± 5 cpm/200-μg protein
- Calpain activities of muscle samples, Gastrocnemius ([8]; 18 mg/kg leupeptin): 67 ± 8 cpm/200-μg protein
- Calpain activities of muscle samples, Soleus ([8]; 18 mg/kg leupeptin): 102 ± 9 cpm/200-μg protein
- decrease in calpain activity vs untreated MDX muscles ([8]; soleus, 12 mg/kg): 44%
- decrease in calpain activity vs untreated MDX muscles ([8]; soleus, 18 mg/kg): 70%
